We go through four molecules from ChEMBL document CHEMBL6092185, “Discovery of glycosidated glycyrrhetinic acid derivatives: Natural product-based soluble epoxide hydrolase inhibitors” (Eur J Med Chem, 2024).

Data set [1] concerns the target T1, Bifunctional epoxide hydrolase 2 (Mus musculus, UniProt P34914).
T1 sequence (P34914 whole entry): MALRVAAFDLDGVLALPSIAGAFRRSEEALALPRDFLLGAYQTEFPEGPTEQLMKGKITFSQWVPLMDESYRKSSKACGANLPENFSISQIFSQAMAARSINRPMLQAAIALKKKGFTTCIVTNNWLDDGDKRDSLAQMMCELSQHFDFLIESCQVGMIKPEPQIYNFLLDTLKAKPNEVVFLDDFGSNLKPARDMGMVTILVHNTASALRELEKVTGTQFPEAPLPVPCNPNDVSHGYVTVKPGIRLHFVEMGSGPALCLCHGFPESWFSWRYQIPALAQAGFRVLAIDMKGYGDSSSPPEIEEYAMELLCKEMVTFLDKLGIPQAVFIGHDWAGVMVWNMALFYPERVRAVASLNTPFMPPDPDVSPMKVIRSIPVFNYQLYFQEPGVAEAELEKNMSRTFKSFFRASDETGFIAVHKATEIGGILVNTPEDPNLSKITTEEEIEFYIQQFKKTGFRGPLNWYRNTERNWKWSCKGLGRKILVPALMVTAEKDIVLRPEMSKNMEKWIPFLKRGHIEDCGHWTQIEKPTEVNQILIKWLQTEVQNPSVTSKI
The data set is described as follows: Inhibition of C57BL/6J mouse cortex sEH using 14,15-EET as substrate preincubated for 15 mins followed by substrate addition measured after 2 hrs by UPLC-MS/MS analysis.

Data set [2] is filed under the species Mus musculus. In words: animal or person. The following applies: BALB/c, po, 6 h, read-out: INH.
Description: Anti-inflammatory activity in BALB/c mouse model of Carrageenan-induced paw edema assessed as inhibition of edema at 20 mg/kg, IG measured upto 6 hrs relative to control
The species named for data set [3] is Mus musculus. The data set is described as follows: animal or person. The following applies: BALB/c, po, 1 h, read-out: INH.
Description: Anti-inflammatory activity in BALB/c mouse model of Carrageenan-induced paw edema assessed as inhibition of edema at 20 mg/kg, IG measured after 1 hr relative to control
Data set [4] addresses T2, Bifunctional epoxide hydrolase 2 (Homo sapiens, UniProt P34913).
T2 sequence (P34913 whole entry): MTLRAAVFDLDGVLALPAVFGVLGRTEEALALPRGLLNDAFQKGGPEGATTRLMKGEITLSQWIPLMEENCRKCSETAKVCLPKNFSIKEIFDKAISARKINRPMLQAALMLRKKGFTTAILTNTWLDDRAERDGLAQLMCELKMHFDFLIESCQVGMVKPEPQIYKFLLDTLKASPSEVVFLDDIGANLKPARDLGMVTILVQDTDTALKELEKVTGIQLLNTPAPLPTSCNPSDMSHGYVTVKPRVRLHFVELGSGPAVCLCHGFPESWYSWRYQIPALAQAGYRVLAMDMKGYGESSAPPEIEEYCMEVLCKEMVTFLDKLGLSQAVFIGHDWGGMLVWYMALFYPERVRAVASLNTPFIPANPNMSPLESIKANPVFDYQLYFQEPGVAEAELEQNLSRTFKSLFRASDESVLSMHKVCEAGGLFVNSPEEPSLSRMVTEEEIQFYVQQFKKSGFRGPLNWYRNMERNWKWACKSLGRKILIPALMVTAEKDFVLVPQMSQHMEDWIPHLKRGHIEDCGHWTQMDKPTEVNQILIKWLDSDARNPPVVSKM
In words: Inhibition of sEH (unknown origin) using PHOME as substrate incubated for 1 hr by fluorimetric assay.

Data set [5] can be described thus: in vivo. The following applies: BALB/c, mouse, liver/plasma, po, 20 mg/kg.
Description: Ratio of AUC (0 to 24 hrs) in BALB/c mouse liver to plasma at 20 mg/kg, IG measured upto 24 hrs by LC-MS/MS analysis
Data set [6] can be described thus: in vivo. To be noted: BALB/c, mouse, plasma, po, 20 mg/kg.
Description: AUC (0 to 24 hrs) in BALB/c mouse plasma at 20 mg/kg, IG measured upto 24 hrs by LC-MS/MS analysis
Data set [7] in a line: in vivo. The following applies: BALB/c, mouse, plasma, po, 20 mg/kg. The source holds these as a separate data set.
Description: Cmax in BALB/c mouse plasma at 20 mg/kg, IG measured upto 24 hrs by LC-MS/MS analysis
Data set [8] is described as follows: in vivo. The following applies: BALB/c, mouse, liver/plasma, po, 20 mg/kg. The source holds these as a separate data set.
Description: Ratio of Cmax in BALB/c mouse liver to plasma at 20 mg/kg, IG measured upto 24 hrs by LC-MS/MS analysis
A short description of data set [9]: Cytotoxicity against human HepG2 cells incubated overnight by CCK8 assay.
Data set [10] can be described thus: in vivo. The following applies: BALB/c, mouse, liver, po, 20 mg/kg.
Description: Cmax in BALB/c mouse liver at 20 mg/kg, IG measured upto 24 hrs by LC-MS/MS analysis
Data set [11] is described as follows: Cytotoxicity against HEK293T cells incubated overnight by CCK8 assay. The following applies: human.

As for `CC1(C)[C@@H](O[C@H]2OC[C@@H](O)[C@@H](O)[C@@H]2O)CC[C@]2(C)[C@H]3C(=O)C=C4[C@H]5C[C@@](C)(CNC(=O)NCC6CCOCC6)CC[C@]5(C)CC[C@@]4(C)[C@]3(C)CC[C@@H]12`, the IC50 in data set [1] amounted to 0.0861 µM. For the same molecule, the inhibition in vivo at 20 mg/kg in [2] was 37.4%.

In turn, `CCC(=O)N1CCC(CNC(=O)NC[C@@]2(C)CC[C@]3(C)CC[C@]4(C)C(=CC(=O)[C@@H]5[C@@]6(C)CC[C@H](O[C@H]7O[C@H](CO)[C@@H](O)[C@H](O)[C@@H]7O)C(C)(C)[C@@H]6CC[C@]54C)[C@@H]3C2)CC1` had a 50% inhibitory concentration (IC50) in [1] of 0.182 µM. Moreover, in [3], the inhibition in vivo at 20 mg/kg is 38.4%.

The molecule `C[C@H]1[C@H](C)CC[C@]2(C(=O)O)CC[C@]3(C)C(=CC[C@@H]4[C@@]5(C)CC[C@H](O)C(C)(C)[C@@H]5CC[C@]43C)[C@H]12` [URSOLIC ACID] gave an IC50 in data set [4] of 11.1 µM.

On to `CC1(C)[C@@H](O[C@H]2O[C@H](CO)[C@@H](O)[C@H](O)[C@@H]2O)CC[C@]2(C)[C@H]3C(=O)C=C4[C@H]5C[C@@](C)(CNC(=O)NCC6CCOCC6)CC[C@]5(C)CC[C@@]4(C)[C@]3(C)CC[C@@H]12`, for which the values for the Kp at 24 h in [5] and in data set [8] were 8.91 and 11, respectively. This molecule gave an AUC(0-t) at 24 h in data set [6] of 655 ng·h/mL. Also, the Cmax at 24 h in data set [7] is 194 ng/mL; in [10], 2140 ng/g. In addition, the IC50 was found to be 0.121 µM in data set [1], 17.6 µM in data set [9] and 46.6 µM in [11].
